Read-outs that look alike come from different tables or passages of the source.
Target: T1, mouse TMEM16B (Mus musculus, UniProt Q8CFW1)
T1 construct: expressed in transfected cells; host or cells: HEK293T
T1 sequence (Q8CFW1 1-1002): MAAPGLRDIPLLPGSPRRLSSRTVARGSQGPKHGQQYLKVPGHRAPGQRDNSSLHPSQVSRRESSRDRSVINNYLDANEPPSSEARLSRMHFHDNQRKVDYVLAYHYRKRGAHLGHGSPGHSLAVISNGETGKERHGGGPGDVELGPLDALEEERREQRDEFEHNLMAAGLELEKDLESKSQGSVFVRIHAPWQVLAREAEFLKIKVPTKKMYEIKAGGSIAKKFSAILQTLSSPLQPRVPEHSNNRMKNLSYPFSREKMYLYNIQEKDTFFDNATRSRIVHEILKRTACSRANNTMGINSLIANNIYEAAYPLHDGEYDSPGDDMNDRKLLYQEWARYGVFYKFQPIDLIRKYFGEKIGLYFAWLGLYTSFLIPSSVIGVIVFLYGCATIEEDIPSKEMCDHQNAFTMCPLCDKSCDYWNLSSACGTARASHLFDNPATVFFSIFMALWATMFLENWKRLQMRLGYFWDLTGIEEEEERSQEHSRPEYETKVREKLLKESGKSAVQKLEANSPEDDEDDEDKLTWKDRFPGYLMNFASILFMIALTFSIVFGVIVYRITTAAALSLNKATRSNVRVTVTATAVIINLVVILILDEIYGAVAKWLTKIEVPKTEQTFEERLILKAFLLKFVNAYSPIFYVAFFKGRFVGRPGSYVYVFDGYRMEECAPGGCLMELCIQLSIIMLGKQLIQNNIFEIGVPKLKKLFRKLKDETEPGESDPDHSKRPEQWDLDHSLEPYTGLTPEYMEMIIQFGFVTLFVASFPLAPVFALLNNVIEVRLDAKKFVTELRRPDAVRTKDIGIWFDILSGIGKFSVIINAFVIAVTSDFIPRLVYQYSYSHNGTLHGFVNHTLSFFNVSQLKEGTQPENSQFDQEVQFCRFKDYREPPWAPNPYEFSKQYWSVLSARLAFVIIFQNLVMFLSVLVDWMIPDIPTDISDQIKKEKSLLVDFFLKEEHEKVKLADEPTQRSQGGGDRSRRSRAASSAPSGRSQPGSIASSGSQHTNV
Assay: Inside-out patch recording of 1PBC block, TMEM16B
Format: cell-based
Conditions: 15 µM Ca2+; for remaining activity at 3 µM: 3 µM 1PBC; for remaining activity at 3 µM / remaining activity at 10 µM / remaining activity at 30 µM / remaining activity at 100 µM: read-out: I/Imax; for remaining activity at 10 µM: 10 µM 1PBC; for remaining activity at 30 µM: 30 µM 1PBC; for remaining activity at 100 µM: 100 µM 1PBC
Procedure: HEK293T cells (ATCC CRL-1573) were maintained in Dulbecco’s modified Eagle’s medium (DMEM; Sigma-Aldrich) supplemented with 10 U ml^−1 penicillin, 0.1 mg ml^−1 streptomycin (Sigma-Aldrich), 2 mM L-glutamine (Sigma-Aldrich), and 10% FBS (Sigma-Aldrich) in a humidified atmosphere containing 5% CO2 at 37 °C. HEK293S GnTI^− cells (ATCC CRL-3022) were maintained in HyClone HyCell TransFx-H medium (GE Healthcare) supplemented with 10 U ml^−1 penicillin, 0.1 mg ml^−1 streptomycin, 4 mM L-glutamine, 0.15% poloxamer 188 (Sigma-Aldrich), and 1% FBS in an atmosphere containing 5% CO2 at 185 rpm at 37 °C. The ac splice variant of mouse TMEM16A (UniProt ID: Q8BHY3), mouse TMEM16B (UniProt ID: Q8CFW1), or mouse TMEM16F (UniProt ID: Q6P9J9) bearing a 3C cleavage site, a Venus YFP, a Myc tag, and a Streptavidin-binding peptide (SBP) downstream of the open reading frame in a modified pcDNA3.1 vector (Invitrogen) were used as described previously[21],[31]. Mutations were introduced using a modified QuikChange method[58] and were verified by sequencing.
HEK293T cells were transfected with 3–4 μg DNA per 6 cm Petri dish using the calcium phosphate co-precipitation method and were used within 24–96 h after transfection. Recordings were performed on inside-out patches excised from HEK293T cells expressing the construct of interest. Patch pipettes were pulled from borosilicate glass capillaries (O.D. 1.5 mm, I.D. 0.86 mm, Sutter Instrument) and were fire-polished with a microforge (Narishige) before use. Pipette resistance was typically 3–8 MΩ when filled with the recording solutions detailed below. Seal resistance was typically 4 GΩ or higher. Voltage-clamp recordings were made using Axopatch 200B, Digidata 1550, and Clampex 10.7 (Molecular Devices). Analog signals were filtered with the in-built 4-pole Bessel filter at 10 kHz and were digitized at 20 kHz. Solution exchange was achieved using a gravity-fed system through a theta glass pipette mounted on an ultra-fast piezo-driven stepper (Siskiyou). […] All recordings were performed at 20 °C.
A symmetrical ionic condition was used throughout. Stock solution with Ca^2+-EGTA contained 150 mM NaCl, 5.99 mM Ca(OH)2, 5 mM EGTA, and 10 mM HEPES at pH 7.40. Stock solution with EGTA contained 150 mM NaCl, 5 mM EGTA, and 10 mM HEPES at pH 7.40. Free Ca^2+ concentrations were adjusted by mixing the stock solutions at the required ratios calculated using the WEBMAXC program (http://web.stanford.edu/~cpatton/webmaxcS.htm). Patch pipettes were filled with the stock solution with Ca^2+-EGTA, which has a free Ca^2+ concentration of 1 mM. 1PBC (ChemBridge) stock was reconstituted in anhydrous DMSO (Sigma-Aldrich) at 100 mM and stored at −20 °C. Working solutions with 1PBC were prepared by serial dilution. Unless otherwise stated, experiments were performed at a saturating Ca^2+ concentration as shown in Supplementary Table 1 and the primary data were corrected for current rundown as described previously[21],[25].
Concentration-response relations, obtained from the ratio of the I-V plots before and after the application of the blocker, were fitted to the Hill equation,1 I/Imax=1/1+IC50/[blocker]^h where I/Imax is the normalized current responses, IC50 defines the concentration at which inhibition is at its half-maximum, and h is the Hill coefficient.

**Q.** For `N#Cc1c(C(F)(F)F)cc(O)n2c1nc1ccccc12` [1PBC], which remaining activity at 3 µM (+80 mV) is on record?
**A.** 55.6%

**Q.** What about the remaining activity at 3 µM (-80 mV) of the same compound?
**A.** 89.9%

**Q.** What about the remaining activity at 10 µM (+80 mV) of the same compound?
**A.** 31%

**Q.** And the remaining activity at 10 µM (-80 mV)?
**A.** 70.1%

**Q.** What about the “Block of the channel TMEM16B” value of the same compound?
**A.** blocks

**Q.** What about the remaining activity at 30 µM (+80 mV) of the same compound?
**A.** 16.8%

**Q.** And the remaining activity at 30 µM (-80 mV)?
**A.** 43.9%

**Q.** What about the remaining activity at 100 µM (+80 mV) of the same compound?
**A.** 7.99%

**Q.** What about the remaining activity at 100 µM (-80 mV) of the same compound?
**A.** 20.5%
